Data: ChEMBL document CHEMBL4373664, “Importance of lipophilicity for potent anti-herpes simplex virus-1 activity of α-hydroxytropolones” (Medchemcomm, 2019)
Activity calls are given as the source filed them. No cut-off for these calls is given here.

Columns and labels:
Human alphaherpesvirus 1 [1] = test: Antiviral activity against HSV-1 infected in African green monkey Vero cells assessed as suppression of viral replication at 0.2 uM after 24 hrs by plaque reduction assay based phase contrast microscopy; assay type: functional
Human alphaherpesvirus 1 [2] = test: Antiviral activity against HSV-1 infected in African green monkey Vero cells assessed as suppression of viral replication at 1 uM after 24 hrs by plaque reduction assay based phase contrast microscopy; assay type: functional
Human alphaherpesvirus 1 [3] = test: Antiviral activity against HSV-1 infected in African green monkey Vero cells assessed as suppression of viral replication at 5 uM after 24 hrs by plaque reduction assay based phase contrast microscopy; assay type: functional
[4] = Inhibition of NTS in HSV-1 infected in African green monkey Vero cells assessed as suppression of viral replication by measuring viral titer after 24 hrs by plaque reduction assay based phase contrast microscopy; assay type: cell-based; settings: Human alphaherpesvirus 1, Vero
[5] = Inhibition of NTS in HSV-2 infected in African green monkey Vero cells assessed as suppression of viral replication by measuring viral titer after 24 hrs by plaque reduction assay based phase contrast microscopy; assay type: cell-based; settings: Human alphaherpesvirus 2, Vero
[6] = Cytotoxicity against African green monkey Vero cells incubated for 24 hrs by MTT assay; assay type: cell-based; settings: chlorocebus sabaeus
[7] = Cytotoxicity against African green monkey Vero cells incubated for 72 hrs by MTS assay; assay type: cell-based; settings: chlorocebus sabaeus
Human alphaherpesvirus 1 [8] = test: Antiviral activity against HSV-1 infected in African green monkey Vero cells assessed as suppression of viral replication after 24 hrs by plaque reduction assay based phase contrast microscopy; assay type: functional, organism-based; settings: Human alphaherpesvirus 1, Vero
[9] = Therapeutic index, ratio of CC50 for African green monkey Vero cells to EC50 for HSV-1 infected in African green monkey Vero cells; assay type: toxicity; settings: read-out: Ratio CC50/EC50
Human alphaherpesvirus 1 [10] = test: Antiviral activity against HSV-1 infected in African green monkey Vero cells assessed as suppression of viral replication at 1 uM after 24 hrs by plaque reduction assay based phase contrast microscopy relative to control; assay type: functional

| EC50 (Human alphaherpesvirus 1 [8]) | SMILES | log(activity) (Human alphaherpesvirus 1 [1]) | log(activity) (Human alphaherpesvirus 1 [2]) | log(activity) (Human alphaherpesvirus 1 [3]) | EC50 [4] | EC50 [5] | CC50 at 24 h [6] | CC50 at 72 h [7] | selectivity ratio [9] | fold change (FC) (Human alphaherpesvirus 1 [10]) |
| --- | --- | --- | --- | --- | --- | --- | --- | --- | --- | --- |
| – | Cc1cc(O)c(=O)c(O)cc1-c1ccc(-c2ccccc2)cc1 | -0.05 | 4.09 | 4.08 | 180 nM | 210 nM | > 100000 nM | > 100000 nM | – | – |
| – | Cc1cc(O)c(=O)c(O)cc1C(=O)c1ccc(-c2ccc3ccccc3c2)cc1 | 1.34 | 3.54 | 4.28 | – | – | – | – | – | – |
| – | COc1ccc(C(=O)c2cc(O)c(=O)c(O)cc2C)cc1 | 0.02 | 0.92 | 3.94 | – | – | – | – | – | – |
| – | Cc1cc(O)c(=O)c(O)cc1C(=O)c1cccs1 | 0.16 | -0.06 | 0.92 | – | – | – | – | – | – |
| – | Cc1cc(O)c(=O)c(O)cc1C(=O)c1cccc(-c2cccc3ccccc23)c1 | 0.15 | 3.15 | 4.6 | – | – | – | – | – | – |
| – | Cc1cc(O)c(=O)c(O)cc1S(=O)(=O)c1ccc(-c2ccccc2)cc1 | inactive | -0.34 | 4.44 | – | – | – | – | – | – |
| 170 nM | Cc1cc(O)c(=O)c(O)cc1C(=O)c1ccc(-c2ccccc2)cc1 | 0.43 | 4.86 | 4.72 | 120 nM | 81 nM | > 100000 nM | > 100000 nM | > 600 | – |
| 630 nM | Cc1cc(O)c(=O)c(O)cc1C(=O)C1CCCCC1 | 0.62 | 0.76 | 5.14 | – | – | 73000 nM | – | 116 | – |
| – | Cc1cc(O)c(=O)c(O)cc1C(=O)c1ccco1 | -0.1 | 0.41 | 4.52 | – | – | – | – | – | – |
| – | Cc1cc(O)c(=O)c(O)cc1-c1cccc(-c2ccc3ccccc3c2)c1 | 0.06 | 0.66 | 4.1 | – | – | – | – | – | – |
| 350 nM | CCCCCCCCCCCC(=O)c1cc(O)c(=O)c(O)cc1C | 0.29 | 3.23 | 4.84 | – | – | 95000 nM | – | 255 | >10 |
| – | Cc1cc(O)c(=O)c(O)cc1C(=O)c1ccc([N+](=O)[O-])cc1 | 0.03 | 0.6 | 3.91 | – | – | – | – | – | – |
| 26000 nM | Cc1cc(O)c(=O)c(O)cc1C(=O)C(C)C | inactive | inactive | -0.01 | – | – | 91000 nM | – | 3.6 | – |
| – | Cc1cc(O)c(=O)c(O)cc1C(=O)c1ccc2ccccc2c1 | 0.28 | 3.82 | 4.08 | – | – | – | – | – | >10 |
| – | Cc1cc(O)c(=O)c(O)cc1-c1cccc(-c2cccc3ccccc23)c1 | 0.04 | 4 | 4.02 | – | – | – | – | – | – |
| – | Cc1cc(O)c(=O)c(O)cc1S(=O)(=O)c1ccccc1 | inactive | 0.81 | 0.34 | – | – | – | – | – | – |

| EC50 (Human alphaherpesvirus 1 [8]) | SMILES | log(activity) (Human alphaherpesvirus 1 [1]) | log(activity) (Human alphaherpesvirus 1 [2]) | log(activity) (Human alphaherpesvirus 1 [3]) | EC50 [4] | EC50 [5] | CC50 at 24 h [6] | CC50 at 72 h [7] | selectivity ratio [9] | fold change (FC) (Human alphaherpesvirus 1 [10]) |
| --- | --- | --- | --- | --- | --- | --- | --- | --- | --- | --- |
| – | CC(C)c1ccc(O)c(=O)c(O)c1 [BETA-THUJAPLICINOL] | – | – | – | 2000 nM | 1700 nM | > 100000 nM | – | – | – |
| – | Cc1cc(O)c(=O)c(O)cc1C(=O)c1ccccc1O | 0.1 | 0.86 | 3.86 | – | – | – | – | – | – |
| – | Cc1cc(O)c(=O)c(O)cc1C(=O)c1cccc(-c2ccc3ccccc3c2)c1 | 0.14 | 3.03 | 4.11 | – | – | – | – | – | – |
| – | CC(C)=CCc1ccc(=O)c(O)cc1C(C)C | – | – | – | 240 nM | 220 nM | 100000 nM | – | – | – |
| – | Cc1cc(O)c(=O)c(O)cc1-c1cccc(-c2ccccc2)c1 | 0.02 | 4.26 | 4.28 | – | – | – | – | – | – |
| 60 nM | Cc1cc(O)c(=O)c(O)cc1C(=O)c1ccc2ccc3cccc4ccc1c2c34 | 0.93 | 5.01 | 5.76 | – | – | > 100000 nM | – | > 1800 | – |
| – | Cc1cc(O)c(=O)c(O)cc1C(=O)c1cccc(Br)c1 | 0.09 | 0.21 | 5.46 | – | – | – | – | – | – |
| 440 nM | CCCCCCCC(=O)c1cc(O)c(=O)c(O)cc1C | 0.13 | 0.2 | 4.84 | – | – | 81000 nM | – | 185 | – |
| – | C=C(C)[C@@H]1CCc2c(c(C)cc(O)c(=O)c2O)C1 | – | – | – | 350 nM | 580 nM | 100000 nM | – | – | – |
| 1100 nM | CCCCCCCCCC(=O)c1cc(O)c(=O)c(O)cc1C | inactive | 0.07 | 3.78 | – | – | > 100000 nM | – | > 92 | – |
| – | Cc1cc(O)c(=O)c(O)cc1C(=O)c1ccc(Br)cc1 | 0.09 | 0.42 | 5.4 | – | – | – | – | – | – |
| – | Cc1cc(O)c(=O)c(O)cc1C(=O)c1ccccc1 | inactive | 0.11 | 4.21 | – | – | – | – | – | – |
| – | Cc1cc(O)c(=O)c(O)cc1-c1ccc(-c2ccc3ccccc3c2)cc1 | -0.03 | 0.57 | 4.15 | – | – | – | – | – | – |
| 1200 nM | CC(=O)c1cc(O)c(=O)c(O)cc1C | inactive | inactive | 0.48 | – | – | > 100000 nM | – | > 83 | – |
| 140 nM | CCCCCCCCCCCCCC(=O)c1cc(O)c(=O)c(O)cc1C | 0.36 | 1.58 | 4.31 | – | – | 91000 nM | – | 631 | >10 |
| – | Cc1cc(O)c(=O)c(O)cc1C(=O)c1cccc([N+](=O)[O-])c1 | 0.23 | 0.9 | 4.2 | – | – | – | – | – | – |
